The values that follow come from US20230322785A1, “ADENOSINE A2A AND A2B RECEPTOR DUAL ANTAGONISTS FOR IMMUNO-ONCOLOGY” (Merck Sharp & Dohme LLC, priority 2020, published 2023).

The target in this assay is T1, human A2A adenosine receptor (Homo sapiens, UniProt P29274).
T1 construct: expressed in transfected cells; host or cells: HEK293 or CHO cells
T1 sequence (P29274 whole entry): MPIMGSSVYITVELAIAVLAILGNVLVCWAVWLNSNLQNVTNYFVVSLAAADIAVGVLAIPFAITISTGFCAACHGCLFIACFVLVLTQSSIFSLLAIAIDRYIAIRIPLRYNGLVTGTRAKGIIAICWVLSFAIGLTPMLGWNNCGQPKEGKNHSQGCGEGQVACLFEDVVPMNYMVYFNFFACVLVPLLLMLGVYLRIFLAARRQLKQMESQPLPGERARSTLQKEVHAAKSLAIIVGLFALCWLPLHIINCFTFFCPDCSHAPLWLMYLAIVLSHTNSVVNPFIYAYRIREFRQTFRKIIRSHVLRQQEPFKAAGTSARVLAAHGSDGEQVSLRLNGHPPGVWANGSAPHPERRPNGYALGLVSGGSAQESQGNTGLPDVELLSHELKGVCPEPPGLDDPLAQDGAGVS
Nature of the assay: A2A binding affinity, Method (A): radioligand filtration binding with [3H]SCH58261. Particulars: membranes of HEK293 or CHO cells expressing the human receptor. The source says:
Method (A) describes the procedure used to measure A2A binding affinity using radioligand binding. Method (B) describes the procedure used to measure A2A binding affinity using SPA technology. The method used to measure A2B binding affinity is also described below. The method used to determine the A2A IC50 value reported for each compound in the table is indicated next to the reported value. The A2B IC50 value measured using the A2B binding affinity assay is shown in the table next to the compound under the corresponding A2A value.
The A2A receptor affinity binding assay measured the amount of binding of a tritiated ligand with high affinity for the A2A adenosine receptor to membranes made from HEK293 or CHO cells recombinantly expressing the human A2A adenosine receptor, in the presence of varying concentrations of a compound of the invention. The data were generated using either filtration binding or a homogenous scintillation proximity assay (SPA).
Method (A): Measurement of A2A Binding Affinity Using Radioligand Binding
148 µL (5 µg/mL) membranes (Perkin Elmer, Cat. No. RBHA2aM400UA) and 2 µL compounds of the invention to be tested (test compound) were transferred to individual wells of a 96-well polypropylene assay plate and incubated for 15 to 30 min at room temperature. [^3H] SCH58261 ((7-(2-phenylethyl)-5-amino-2-(2-furyl)-pyrazolo-[4,3-e]-1,2,4-triazolo[1,5-c]pyrimidine)) was diluted in assay buffer (50 mM Tris pH 7.4, 10 mM MgCl2, 0.005% Tween20) to a concentration of 4 nM and 50 µL transferred to each well of the assay plate. To define total and non-specific binding, wells containing 1% DMSO and 1 µM ZM241385 (Tocris Bioscience, Cat. No. 1036) respectively, were also included. The assay plate was incubated at room temperature for 60 min with agitation. Using a FilterMate Harvester® (Perkin Elmer), the contents of the assay plate were filtered through a UniFilter-96® PEI coated plate (Perkin Elmer Cat. No. 6005274 or 6005277). Filtering was achieved by aspirating the contents of the assay plate for 5 sec, then washing and aspirating the contents three times with ice-cooled wash buffer (50 mM Tris-HCl pH 7.4, 150 mM NaCl) and allowing the vacuum manifold to dry the plate for 30 sec. The filter plate was incubated for at least 1 h at 55° C. and allowed to dry. The bottom of the filter plate was sealed with backing tape. 40 µL Ultima Gold™ (Perkin Elmer, Cat. No. 6013329) was added to each well of the filter plate and the top of the plate was sealed with TopSeal-A PLUS® clear plate seal (Perkin Elmer, Cat. No. 6050185). The plate was incubated for at least 20 min, and then the amount of radioactivity remaining in each well was determined using a TopCount® (Perkin Elmer) scintillation counter. After normalization to total and non-specific binding, the percent effect at each compound concentration was calculated. The plot of percent effect versus the log of compound concentration was analyzed electronically using a 4-parameter logistic fit based on the Levenberg-Marquardt algorithm to generate IC50 values.
On to `COc1cccc2c1nc(N)n1nc(CNC(=O)c3ccc(C(C)(O)C(F)(F)F)cc3)nc21` (single isomer, unassigned) [Example 2.7A, (S or R)-N-((5-amino-7-methoxy-[1,2,4]triazolo[1,5-c]quinazolin-2-yl)methyl)-4-(1,1,1-trifluoro-2-hydroxypropan-2-yl)benzamide], for which the IC50 was 0.3 nM.

`COc1cccc2c1nc(N)n1nc(CNC(=O)c3ccc(C(C)(O)C(F)(F)F)cc3)nc21` (single isomer, unassigned) [Example 2.7B, (R or S)-N-((5-amino-7-methoxy-[1,2,4]triazolo[1,5-c]quinazolin-2-yl)methyl)-4-(1,1,1-trifluoro-2-hydroxypropan-2-yl)benzamide] registered an IC50 of 0.5 nM. Against the preceding compound, the IC50 is about 1.7-fold higher.

For the compound `COc1cccc2c1nc(N)n1nc(CNC3CCc4c(nnn4C4CC(F)(F)C4)C3)nc21` (single isomer, unassigned) [Example 11.2A, (S or R)-2-(((1-(3,3-difluorocyclobutyl)-4,5,6,7-tetrahydro-1H-benzo[d][1,2,3]triazol-5-yl)amino)methyl)-7-methoxy-[1,2,4]triazolo[1,5-c]quinazolin-5-amine], the IC50 turned out to be 0.6 nM. This IC50 and that of the compound before are within 1.5-fold of each other.

`COc1cccc2c1nc(N)n1nc(CNC3CCc4c(nnn4C4CC(F)(F)C4)C3)nc21` (single isomer, unassigned) [Example 11.2B, (R or S)-2-(((1-(3,3-difluorocyclobutyl)-4,5,6,7-tetrahydro-1H-benzo[d][1,2,3]triazol-5-yl)amino)methyl)-7-methoxy-[1,2,4]triazolo[1,5-c]quinazolin-5-amine] had an IC50 of 3.4 nM. Against the preceding compound, the IC50 is about 5.7-fold higher.

Take `COc1cc(F)cc2c1nc(N)n1nc(CNC(c3ccc(C(C)(C)O)cc3)C(F)(F)F)nc21` (single isomer, unassigned) [Example 25.3A, (S or R)-2-(4-(1-(((5-amino-9-fluoro-7-methoxy-[1,2,4]triazolo[1,5-c]quinazolin-2-yl)methyl)amino)-2,2,2-trifluoroethyl)phenyl)propan-2-ol]: the 50% inhibitory concentration (IC50) was determined as 19.3 nM. Compared with the last compound, the IC50 is about 5.7-fold higher.

Compound `COc1cc(F)cc2c1nc(N)n1nc(CNC(c3ccc(C(C)(C)O)cc3)C(F)(F)F)nc21` (single isomer, unassigned) [Example 25.3B, (R or S)-2-(4-(1-(((5-amino-9-fluoro-7-methoxy-[1,2,4]triazolo[1,5-c]quinazolin-2-yl)methyl)amino)-2,2,2-trifluoroethyl)phenyl)propan-2-ol] registered an IC50 of 29.2 nM.

`COc1cccc2c1nc(N)n1nc(CNC(=O)c3c(C)cc(C(C)(C)O)cc3C)nc21` [Entry 1.3]: the IC50 stood at 10.2 nM.

Turning to `COc1cc(F)cc2c1nc(N)n1nc(CNC(=O)c3ccc(C(C)(C)O)cc3Cl)nc21` [Entry 3.5], the IC50 is 2.5 nM. This IC50 is about 4.1-fold lower than that of the compound before.

In turn, `COc1cccc2c1nc(N)n1nc(CN(C)C(=O)c3ccc(C(C)(C)O)cc3)nc21` [Example 1.2, N-((5-amino-7-methoxy-[1,2,4]triazolo[1,5-c]quinazolin-2-yl)methyl)-4-(2-hydroxypropan-2-yl)-N-methylbenzamide] had an IC50 of 0.3 nM.

`COc1cccc2c1nc(N)n1nc(CNC(=O)c3ccc(C(C)(C)O)cc3)nc21` [Example 2.1, N-((5-amino-7-methoxy-[1,2,4]triazolo[1,5-c]quinazolin-2-yl)methyl)-4-(2-hydroxypropan-2-yl)benzamide] returned an IC50 of 0.6 nM. This IC50 is about 2-fold higher than that of the compound before.

Compound `COc1cccc2c1nc(N)n1nc(CNC(=O)c3ccc(C(O)(C(F)(F)F)C(F)(F)F)cc3)nc21` [Example 2.6, N-((5-amino-7-methoxy-[1,2,4]triazolo[1,5-c]quinazolin-2-yl)methyl)-4-(1,1,1,3,3,3-hexafluoro-2-hydroxypropan-2-yl)benzamide] gave an IC50 of 0.3 nM.

`COc1cc(F)cc2c1nc(N)n1nc(CNC(=O)c3c(F)cc(C(C)(C)O)cc3F)nc21` [Example 3.4, N-((5-amino-9-fluoro-7-methoxy-[1,2,4]triazolo[1,5-c]quinazolin-2-yl)methyl)-2,6-difluoro-4-(2-hydroxypropan-2-yl)benzamide] had an IC50 of 11.1 nM.

Consider `COc1cccc2c1nc(N)n1nc(CNC(=O)c3ccc(C(C)(C)O)cn3)nc21` [Example 4.2, N-((5-amino-7-methoxy-[1,2,4]triazolo[1,5-c]quinazolin-2-yl)methyl)-5-(2-hydroxypropan-2-yl)picolinamide], for which the IC50 was 1.4 nM.

As to `COc1cccc2c1nc(N)n1nc(CNC(=O)c3ccc(S(N)(=O)=O)cc3)nc21` [Example 4.10, N-((5-amino-7-methoxy-[1,2,4]triazolo[1,5-c]quinazolin-2-y1)methyl)-4-sulfamoylbenzamide], the IC50 was 636 nM.

Turning to `COc1cccc2c1nc(N)n1nc(CNC(=O)c3ncc(C(C)(C)O)cc3Br)nc21` [Example 4.11, N-((5-amino-7-methoxy-[1,2,4]triazolo[1,5-c]quinazolin-2-yl)methyl)-3-bromo-5-(2-hydroxypropan-2-yl)picolinamide], the IC50 worked out at 1.5 nM. Compared with the last compound, the IC50 is about 420-fold lower.

As to `COc1cccc2c1nc(N)n1nc(CN3CCO[C@@H](Cc4ccccc4)C3)nc21` [Example 8.1, (S)-2-((2-benzylmorpholino)methyl)-7-methoxy-[1,2,4]triazolo[1,5-c]quinazolin-5-amine], the IC50 stood at 6 nM.

`COc1cccc2c1nc(N)n1nc(CN(C)Cc3ccc(S(N)(=O)=O)cc3)nc21` [Example 9.2, 4-((((5-amino-7-methoxy-[1,2,4]triazolo[1,5-c]quinazolin-2-yl)methyl)(methyl)amino)methyl)benzenesulfonamide]: the IC50 stood at 2.5 nM. This IC50 lies about 2.4-fold lower than the previous one.

For the compound `COc1cc(F)cc2c1nc(N)n1nc(CNC(C)(C)c3ccc(C(C)(C)O)cc3)nc21` [Example 11.9, 2-(4-(2-(((5-amino-9-fluoro-7-methoxy-[1,2,4]triazolo[1,5-c]quinazolin-2-yl)methyl)amino)propan-2-yl)phenyl)propan-2-ol], the IC50 was determined as 1.1 nM.

In the case of `COc1cccc2c1nc(N)n1nc(CNCc3ccc(S(N)(=O)=O)cc3)nc21` [Example 11.10, 4-((((5-amino-7-methoxy-[1,2,4]triazolo[1,5-c]quinazolin-2-yl)methyl)amino)methyl)benzenesulfonamide], the 50% inhibitory concentration (IC50) stood at 1.4 nM.

Take `COc1cccc2c1nc(N)n1nc(CN3CC(n4cccn4)C3)nc21` [Example 11.12, 2-((3-(1H-pyrazol-1-yl)azetidin-1-yl)methyl)-7-methoxy-[1,2,4]triazolo[1,5-c]quinazolin-5-amine]: the half-maximal inhibitory concentration (IC50) came out at 3.7 nM. Compared with the last compound, the IC50 is about 2.6-fold higher.

Take `COc1cccc2c1nc(N)n1nc(CN3CC(c4ccncc4)C3)nc21` [Example 11.14, 7-methoxy-2-((3-(pyridin-4-yl)azetidin-1-yl)methyl)-[1,2,4]triazolo[1,5-c]quinazolin-5-amine]: the IC50 was 9.1 nM.

`COc1cccc2c1nc(N)n1nc(CCNC34CC(C(C)(C)O)(C3)C4)nc21` [Example 22.2, 2-(3-((2-(5-amino-7-methoxy-[1,2,4]triazolo[1,5-c]quinazolin-2-yl)ethyl)amino)bicyclo[1.1.1]pentan-1-yl)propan-2-ol] showed an IC50 of 12.3 nM.

As for `COc1cccc2c1nc(N)n1nc(CCNc3cnn(C)c3)nc21` [Example 23.2, 7-methoxy-2-(2-((1-methyl-1H-pyrazol-4-yl)amino)ethyl)-[1,2,4]triazolo[1,5-c]quinazolin-5-amine], the IC50 came out at 4.2 nM.

The compound `COc1cc2nc(N)n3nc(CCNc4cnn(CC(C)(C)O)c4)nc3c2cc1F` [Example 24.2, 1-(4-((2-(5-amino-9-fluoro-8-methoxy-[1,2,4]triazolo[1,5-c]quinazolin-2-yl)ethyl)amino)-1H-pyrazol-1-yl)-2-methylpropan-2-ol] displayed an IC50 of 26.5 nM. Compared with the last compound, the IC50 is about 6.3-fold higher.

With `COc1cccc2c1nc(N)n1nc(CCN(C)c3cnn(C)c3)nc21` [Example 24.4, 7-methoxy-2-(2-(methyl(1-methyl-1H-pyrazol-4-yl)amino)ethyl)-[1,2,4]triazolo[1,5-c]quinazolin-5-amine], the half-maximal inhibitory concentration (IC50) came out at 0.9 nM.

The compound `COc1cc(F)cc2c1nc(N)n1nc(CCN3Cc4cnc(C(C)C)n4CC3=O)nc21` [Example 26.3, 7-(2-(5-amino-9-fluoro-7-methoxy-[1,2,4]triazolo[1,5-c]quinazolin-2-yl)ethyl)-3-isopropyl-7,8-dihydroimidazo[1,5-a]pyrazin-6(5H)-one] returned an IC50 of 6.4 nM.
